Consider 33 compounds from patent US8906852B2 (MethylGene Inc., priority 2010, dated 2014).

Some results are limits rather than exact numbers.

In the test the target is T1, VEGFR/KDR (Homo sapiens, UniProt P35968).
T1 construct: made in house; host or cells: Sf9 cells (Spodoptera frugiperda), baculovirus
T1 sequence (P35968 806-1356): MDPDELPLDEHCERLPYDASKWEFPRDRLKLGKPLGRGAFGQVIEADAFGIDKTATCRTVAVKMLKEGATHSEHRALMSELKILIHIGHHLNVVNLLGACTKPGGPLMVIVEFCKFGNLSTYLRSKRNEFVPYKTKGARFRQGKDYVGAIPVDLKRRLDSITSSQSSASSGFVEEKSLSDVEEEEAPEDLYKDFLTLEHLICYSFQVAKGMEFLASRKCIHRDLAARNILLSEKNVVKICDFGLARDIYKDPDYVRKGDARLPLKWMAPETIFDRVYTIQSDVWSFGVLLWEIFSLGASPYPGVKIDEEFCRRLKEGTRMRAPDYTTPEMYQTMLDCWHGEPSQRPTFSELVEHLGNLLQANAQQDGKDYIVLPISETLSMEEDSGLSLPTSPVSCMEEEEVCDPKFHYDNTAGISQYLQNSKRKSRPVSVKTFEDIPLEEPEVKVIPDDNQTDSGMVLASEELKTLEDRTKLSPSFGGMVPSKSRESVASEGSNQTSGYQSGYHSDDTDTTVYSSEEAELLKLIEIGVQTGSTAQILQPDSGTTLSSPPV
Description: VEGFR/KDR kinase inhibition, DELFIA assay. To be noted: ATP 0.6 uM (2x Km), enzyme 5 nM. Type of test: biochemical. Put shortly: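 Enzyme (5 nM) pre-incubated 4 min on ice with inhibitor and Mg-ATP (0.6 uM, 2× Km), then reacted 10-30 min at 30° C on immobilized poly(Glu4,Tyr). EDTA-quenched phosphotyrosine detected with Europium-labeled antibody by time-resolved fluorescence; IC50 from concentration series.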
For the compound `O=C(CO)N[C@H]1CCN(Cc2ccc(-c3cc4nccc(Oc5ccc(NC(=O)NC6CC6)cc5F)c4s3)nc2)C1` [Compound 497, (S)-N-(1-((6-(7-(4-(3-cyclopropylureido)-2-fluorophenoxy)thieno[3,2-b]pyridin-2-yl)-pyridin-3-yl)methyl)pyrrolidin-3-yl)-2-hydroxyacetamide], the IC50 is less than 50 nM.
In turn, `O=C(Nc1ccc(Oc2ccnc3cc(-c4cn(CCN5CCOCC5)nn4)sc23)c(F)c1)NC1CC1` [Compound 364] had an IC50 of less than 50 nM.
The figure for `CN(CC(=O)O)C1CCN(Cc2ccc(-c3cc4nccc(Oc5ccc(NC(=O)NC6CC6)cc5F)c4s3)nc2)CC1` [Compound 423, 2-((1-((6-(7-(4-(3-Cyclopropylureido)-2-fluorophenoxy)thieno[3,2-b]pyridin-2-yl)pyridin-3-yl)methyl)piperidin-4-yl)(methyl)amino)acetic acid] is less than 50 nM.
On to `CCNC(=O)N(CCOC)Cc1ccc(-c2cc3nccc(Oc4ccc(NC(=O)NC5CC5)cc4F)c3s2)cc1` [Compound 195, 1-(4-(7-(4-cyclopropylaminocarbonylamino-2-fluorophenoxy)thieno[3,2-b]pyridin-2-yl)benzyl)-3-ethyl-1-(2-methoxyethyl)urea], for which the IC50 was less than 50 nM.
The figure for `O=C(Nc1ccc(Oc2ccnc3cc(-c4ccc(C(=O)N5CCCC(C(=O)O)C5)cn4)sc23)c(F)c1)NC1CC1` (stereo not drawn) [Compound 240, 1-(6-(7-(4-(3-cyclopropylureido)-2-fluorophenoxy)thieno[3,2-b]-pyridin-2-yl)nicotinoyl)piperidine-3-carboxylic acid] is less than 50 nM.
Compound `CN(C)CCNC(=O)C1CCN(C(=O)c2cc3nccc(Oc4ccc(NC(=O)NC5CC5)cc4F)c3s2)CC1` [Compound 471, 1-(7-(4-(3-cyclopropylureido)-2-fluorophenoxy)thieno[3,2-b]pyridine-2-carbonyl)-N-(2-(dimethylamino)ethyl)piperidine-4-carboxamide] had an IC50 of 50 to 100 nM.
Turning to `O=C(Nc1ccc(Oc2ccnc3cc(-c4cnn(CCN5CCCC5=O)c4)sc23)c(F)c1)NC1CC1` [Compound 166, 1-cyclopropyl-3-(3-fluoro-4-(2-(1-(2-(2-oxopyrrolidin-1-yl)ethyl)-1H-pyrazol-4-yl)thieno[3,2-b]pyridin-7-yloxy)phenyl)urea], the IC50 is less than 50 nM.
In turn, `O=C(Nc1ccc(Oc2ccnc3cc(-c4ccc(CN5CCN(Cc6ccncc6)CC5)cn4)sc23)c(F)c1)NC1CC1` [Compound 325, 1-cyclopropyl-3-(3-fluoro-4-(2-(5-((4-(pyridin-4-ylmethyl)piperazin-1-yl)methyl)pyridin-2-yl)thieno[3,2-b]pyridin-7-yloxy)phenyl)urea] registered an IC50 of less than 50 nM.
Take `O=C(O)CNC(=O)N1CCN(Cc2ccc(-c3cc4nccc(Oc5ccc(NC(=O)NC6CC6)cc5F)c4s3)nc2)CC1` [Compound 558]: the IC50 is less than 50 nM.
Take `COCCN(Cc1ccc(-c2cc3nccc(Oc4ccc(NC(=O)NC5CC5)cc4F)c3s2)nc1)C(=O)CNC(=O)[C@@H](N)C(C)C` [Compound 92, (S)-2-amino-N-(2-(((6-(7-(4-(3-cyclopropylureido)-2-fluorophenoxy)thieno[3,2-b]pyridin-2-yl)pyridin-3-yl)methyl)(2-methoxyethyl)amino)-2-oxoethyl)-3-methylbutanamide]: the IC50 is less than 50 nM.
Compound `CC(C)(C)OC(=O)N[C@@H]1CCN(Cc2ccc(-c3cc4nccc(Oc5ccc(NC(=O)NC6CC6)cc5F)c4s3)nc2)C1` [Compound 481, (R)-tert-butyl 1-((6-(7-(4-(3-cyclopropylureido)-2-fluorophenoxy)thieno[3,2-b]pyridin-2-yl)pyridin-3-yl)methyl)pyrrolidin-3-ylcarbamate] had an IC50 of less than 50 nM.
Take `O=C(O)CCCCCCN1CCN(Cc2ccc(-c3cc4nccc(Oc5ccc(NC(=O)NC6CC6)cc5F)c4s3)nc2)CC1` [Compound 521, 7-(4-((6-(7-(4-(3-cyclopropylureido)-2-fluorophenoxy)thieno[3,2-b]pyridin-2-yl)pyridin-3-yl)methyl)piperazin-1-yl)heptanoic acid]: the IC50 was less than 50 nM.
With `COCCOCC(=O)N1CCN(Cc2ccc(-c3cc4nccc(Oc5ccc(NC(=O)NC6CC6)cc5F)c4s3)nc2)CC1` [Compound 589], the IC50 was less than 50 nM.
The figure for `O=C(Nc1ccc(Oc2ccnc3cc(C(=O)N4CC[C@@H](O)C4)sc23)c(F)c1)NC1CC1` [Compound 460, (R)-1-cyclopropyl-3-(3-fluoro-4-(2-(3-hydroxypyrrolidine-1-carbonyl)thieno[3,2-b]pyridin-7-yloxy)phenyl)urea] is less than 50 nM.
The compound `CCOC(=O)CC1CCN(Cc2ccc(-c3cc4nccc(Oc5ccc(NC(=O)NC6CC6)cc5F)c4s3)nc2)CC1` [Compound 59, ethyl 2-(1-((6-(7-(4-(3-cyclopropylureido)-2-fluorophenoxy)-thieno[3,2-b]pyridin-2-yl)pyridin-3-yl)methyl)piperidin-4-yl)acelate] returned an IC50 of less than 50 nM.
Take `COCCOCCOCCOCCN(C)Cc1ccc(-c2cc3nccc(Oc4ccc(NC(=O)NC5CC5)cc4F)c3s2)nc1` [Compound 180, 1-cyclopropyl-3-(3-fluoro-4-(2-(5-(2-methyl-5,8,11,14-tetraoxa-2-azapentadecyl)pyridin-2-yl)thieno[3,2-b]pyridin-7-yloxy)phenyl)urea]: the IC50 is less than 50 nM.
In turn, `CC(=O)N(CCO)Cc1ccc(-c2cc3nccc(Oc4ccc(NC(=O)NC5CC5)cc4F)c3s2)nc1` [Compound 10, N-((6-(7-(4-(3-cyclopropylureido)-2-fluorophenoxy)thieno[3,2-b]pyridin-2-yl)pyridin-3-yl)methyl)-N-(2-hydroxyethyl)acetamide] yielded an IC50 of less than 50 nM.
The compound `COCCN(CCn1cnc(-c2cc3nccc(Oc4ccc(NC(=O)NC5CC5)cc4F)c3s2)c1)C(=O)CO` [Compound 258, N-(2-(4-(7-(4-(3-cyclopropylureido)-2-fluorophenoxy)thieno[3,2-b]-pyridin-2-yl)-1H-imidazol-1-yl)ethyl)-2-hydroxy-N-(2-methoxyethyl)acetamide] returned an IC50 of less than 50 nM.
As to `COCCN(Cc1ccc(-c2cc3nccc(Oc4ccc(NC(=O)NC5CC5)c(Cl)c4)c3s2)nc1)C(C)=O` [Compound 116, N-((6-(7-(3-chloro-4-(3-cyclopropylureido)phenoxy)thieno[3,2-b]pyridin-2-yl)pyridin-3-yl)methyl)-N-(2-methoxyethyl)acetamide], the IC50 was less than 50 nM.
`CN(CCO)C(=O)C1CCN(Cc2ccc(-c3cc4nccc(Oc5ccc(NC(=O)NC6CC6)cc5F)c4s3)nc2)CC1` [Compound 484]: the IC50 was less than 50 nM.
The figure for `COC(=O)CC(=O)N1CCN(Cc2ccc(-c3cc4nccc(Oc5ccc(NC(=O)NC6CC6)cc5F)c4s3)nc2)CC1` [Compound 506, methyl 3-(4-((6-(7-(4-(3-cyclopropylureido)-2-fluorophenoxy)thieno[3,2-b]pyridin-2-yl)pyridin-3-yl)methyl)piperazin-1-yl)-3-oxopropanoate] is less than 50 nM; for `CN1CCN(CCNC(=O)c2cc3nccc(Oc4ccc(NC(=O)NC5CC5)cc4F)c3s2)CC1` [Compound 440] it is no less than 250 nM.
`CN(C)[C@H]1CCN(C(=O)c2cc3nccc(Oc4ccc(NC(=O)NC5CC5)cc4F)c3s2)C1` [Compound 441] returned an IC50 of less than 50 nM.
In the case of `CCCNC(=O)NC1CCN(Cc2ccc(-c3cc4nccc(Oc5ccc(NC(=O)NC6CC6)cc5F)c4s3)nc2)CC1` [Compound 354], the IC50 is less than 50 nM.
In the case of `COCCN(Cc1ccc(-c2cc3nccc(Oc4ccc(NC(=O)CC5CC5)cc4F)c3s2)nc1)C(C)=O` [Compound 42, 2-cyclopropyl-N-(3-fluoro-4-(2-(5-((N-(2-methoxyethyl)-acetamido)methyl)pyridin-2-yl)thieno[3,2-b]-pyridin-7-yloxy)phenyl)-acetamide], the IC50 is 50 to 100 nM.
The figure for `CCOC(Nc1ccc(Oc2ccnc3cc(-c4ccc(CNCCOC)cn4)sc23)c(F)c1)C(F)(F)F` (stereo not drawn) [Compound 14, N-(1-ethoxy-2,2,2-trifluoroethyl)-3-fluoro-4-(2-(5-((2-methoxyethylamino)-methyl)pyridin-2-yl)thieno[3,2-b]pyridin-7-yloxy)aniline] is no less than 250 nM; for `CN(C)CCNCC(=O)N1CCN(Cc2ccc(-c3cc4nccc(Oc5ccc(NC(=O)NC6CC6)cc5F)c4s3)nc2)CC1` [Compound 549, 1-cyclopropyl-3-(4-(2-(5-((4-(2-(2-(dimethylamino)ethylamino)acetyl)piperazin-1-yl)methyl)pyridin-2-yl)thieno[3,2-b]pyridin-7-yloxy)-3-fluorophenyl)urea] it is less than 50 nM; for `COCCNCc1ccc(-c2cc3nccc(Oc4ccc(NC(=O)NC5CC5)cc4F)c3s2)cc1` [Compound 113] it is less than 50 nM.
As to `CCNC(=O)N(CCOC)CCn1cc(-c2cc3nccc(Oc4ccc(NC(=O)NC5CC5)cc4F)c3s2)cn1` [Compound 255, N-(2-(4-(7-(4-(3-cyclopropylureido)-2-fluorophenoxy)thieno[3,2-b]-pyridine-2-yl)-1H-pyrazol-1-yl)ethyl)-N-(1-ethyl)-N-[3-(2-methoxyethyl)]urea], the IC50 lay within 50 to 100 nM.
Compound `CNC(=O)NC1CCN(Cc2ccc(-c3cc4nccc(Oc5ccc(NC(=O)NC6CC6)cc5F)c4s3)nc2)CC1` [Compound 352] had an IC50 of less than 50 nM.
`O=C(Nc1ccc(Oc2ccnc3cc(-c4ccc(CN5CCC(C(=O)O)CC5)cn4)sc23)c(F)c1)NC1CC1` [Compound 62, l-((6-(7-(4-(3-cyclopropylureido)-2-fluorophenoxy)thieno[3,2-b]pyridin-2-yl)pyridin-3-yl)methyl)piperidine-4-carboxylic acid] returned an IC50 of less than 50 nM.
Regarding `CN1CCN(C(=O)C2CCCN(C(=O)c3cc4nccc(Oc5ccc(NC(=O)NC6CC6)cc5F)c4s3)C2)CC1` (stereo not drawn) [Compound 473, 1-cyclopropyl-3-(3-fluoro-4-(2-(3-(4-methylpiperazine-1-carbonyl)piperidine-1-carbonyl)thieno[3,2-b]pyridin-7-yloxy)phenyl)urea], the IC50 is less than 50 nM.
For `CCN(C(=O)OC(C)(C)C)[C@H]1CCN(C(=O)c2cc3nccc(Oc4ccc(NC(=O)NC5CC5)cc4F)c3s2)C1` [Compound 456], the IC50 was less than 50 nM.

Usually IC50 stands for the concentration that gives 50% inhibition. A higher IC50 goes with weaker potency in that assay.
